Laboratory results taken from US20250040548A1, “Herbicidal compositions comprising saflufenacil” (BASF SF, priority 2023, published 2025).

How the values were obtained:
BRADC [1] = assay: Post-emergence application in field trials (Examples 2 and 3); type: in vivo, Brachiaria decumbens; details: growth stage 22-23, height 32-38 cm, 21 DAT, 1% Dash ® HC
Experimental: (§1) In the examples below, using the method of S. R. Colby (1967) “Calculating synergistic and antagonistic responses of herbicide combinations”, Weeds 15, p. 22ff., the value E, which is expected if the activity of the individual active compounds is only additive, was calculated.
(§2) [formula] • where • X=percent activity using active herbicide A at an application rate a; • Y=percent activity using active saflufenacil at an application rate b; • E=expected activity (in %) by A+B at application rates a+b.
(§3) If the value found experimentally is higher than the value E calculated according to Colby, a synergistic effect is present.
(§4) On field test sites, natural weed infestation or seeded weeds were treated post-emergence of the weeds.
(§5) For the post emergence treatment, the weedy plants were treated as indicated below. The herbicidal compositions were, together with the adjuvant(s) as indicated, suspended or emulsified in water (200 l/ha unless indicated otherwise) as distribution medium and sprayed with commercial flat fan nozzles.
(§6) In the following experiments, the herbicidal activity for the individual herbicidal compositions (solo and mixture applications) was assessed the indicated days after treatment (DAT). The assessments for the damage on undesired weeds caused by the composition was carried out using a scale from 0 to 100%, compared to the untreated control plants. Here, 0 means no damage and 100 means complete destruction of the plants.
as §5, with “I/ha” for “l/ha”

BRADC [2] = assay: Post-emergence application in greenhouse trials; type: in vivo, Brachiaria decumbens; details: growth stage 12, saflufenacil as commercial 342 g/l SC formulation
Experimental: as §1, §2, §3
(§7) The culture containers used were plastic pots containing loamy sand with approximately 3.0% of humus as substrate. The seeds of the test plants were sown separately for each species.
(§8) For the post-emergence treatment, the test plants were grown to a plant height of from 3 to 15 cm, depending on the plant habit, and only then treated with the active compounds which had been suspended or emulsified in water. To this end, the test plants were either sown directly, and grown in the same containers, or they were first grown separately as seedlings and transplanted into the test containers a few days prior to treatment.
(§9) Depending on the species, the plants were kept at 10-25° C. and 20-35° C., respectively.
(§10) The test period extended over 2 to 4 weeks. During this time, the plants were tended and their response to the individual treatments was evaluated.
(§11) Evaluation was carried out using a scale from 0 to 100. 100 means no emergence of the plants, or complete destruction of at least the above-ground parts, and 0 means no damage or normal course of growth. A good herbicidal activity is given at values of at least 70, and very good herbicidal activity is given at values of at least 85.
(§12) Unless indicated otherwise, herbicide A and saflufenacil were formulated (50 g/I) and applied with addition of 1% MSO (methylated seed oil) as adjuvant. In the greenhouse trials, the solvent used was water (200 I/ha).

[3] = test system: ZEAMX* (non-PPOi herbicide tolerant); assay: Post-emergence application in field trials (Examples 2 and 3); type: in vivo, Zea mays; details: 21 DAT
Experimental: as §1, §2, §3, §4, §5, §6
as §5, with “I/ha” for “l/ha”

EPHHL = assay: as above; type: in vivo, Euphorbia heterophylla; details: 21 DAT, growth stage 12-16, height 5-15 cm, 0.5% MSO
Experimental: as §1, §2, §3, §4, §5
as §6, with “Here, 0 means no damage and 100 means complete destruction of the plants.” left out

ERISS = assay: as above; type: in vivo, Erigeron sp.; details: 14 DAT, height 30-50 cm, 0.5% v/v MSO
Experimental: as §1, §2, §3, §4, §5, §6
as §5, with “I/ha” for “l/ha”

DIGIN = assay: as above; type: in vivo, Digitaria insularis
Experimental: as §1, §2, §3, §4, §5, §6
as §5, with “I/ha” for “l/ha”

[4] = test system: SORVU* (non-PPOi herbicide tolerant); assay: as above; type: in vivo, Sorghum vulgare
Experimental: as §1, §2, §3, §4, §5, §6
as §5, with “I/ha” for “l/ha”

POAAN = assay: as above; type: in vivo, Poa annua
Experimental: as §1, §2, §3, §4, §5, §6
as §5, with “I/ha” for “l/ha”

LOLRI = assay: as above; type: in vivo, Lolium rigidum; details: 14 DAT, 1% v/ MSO
Experimental: as §1, §2, §3, §4, §5
as §6, with “Here, 0 means no damage and 100 means complete destruction of the plants.” left out

AMATA = assay: Post-emergence application in greenhouse trials; type: in vivo, Amaranthus tamariscinus; details: 20 DAT, growth stage 14, 1% MSO
Experimental: as §1, §2, §3, §7, §8, §9, §10, §11, §12

ALOMY = assay: Post-emergence application in greenhouse trials; type: in vivo, Alopercurus myosuroides; details: 7 DAT, growth stage 21, saflufenacil as commercial 342 g/l SC formulation
Experimental: as §1, §2, §3, §7
as §8, with “treatment. […]” for “treatment.”
The test period extended over 2 to 4 weeks. During this time, the plants were tended and their response to the individual treatments was evaluated. […]

IPOTR = assay: Post-emergence application in field trials (Examples 2 and 3); type: in vivo, Ipomoea triloba; details: growth stage 40-41, height 65-75 cm, 21 DAT, 1% Dash ® HC
Experimental: as §1, §2, §3, §4, §5
as §6, with “Here, 0 means no damage and 100 means complete destruction of the plants.” left out

[5] = test system: HORVS* (non-PPOi herbicide tolerant); assay: as above; type: in vivo, Hordeum vulgare; details: 1% v/v MSO
Experimental: as §1, §2, §3, §4, §5, §6
as §5, with “I/ha” for “l/ha”

STEME = assay: as above; type: in vivo, Stellaria media; details: 21 DAT, growth stage 63-67, height 7-18 cm, 140 l/ha water, 1% MSO + 2.5% ammoniumsulfate
Experimental: as §1, §2, §3, §4, §5
as §6, with “Here, 0 means no damage and 100 means complete destruction of the plants.” left out

CCOC(=O)COc1ccccc1Oc1nc(-n2c(=O)cc(C(F)(F)F)n(C)c2=O)c(F)cc1Cl [A-1, ethyl 2-[2-[[3-chloro-5-fluoro-6-[3-methyl-2,6-dioxo-4-(trifluoromethyl)pyrimidin-1-yl]-2-pyridyl]oxy]phenoxy]acetate]
% Herbicidal activity (BRADC [1]; A-1 solo 30 g ai/ha): 75%
% Herbicidal activity (BRADC [1]; A-1 solo 50 g ai/ha): 88%
% Herbicidal activity (BRADC [2]; A-1 1.56 g ai/ha, 21 DAT): 75%
% Herbicidal activity (BRADC [2]; A-1 3.12 g ai/ha, 7 DAT): 85%
% Herbicidal activity (BRADC [2]; A-1 3.12 g ai/ha, 21 DAT): 85%
% Herbicidal activity ([3]; A-1 12.5 g ai/ha, growth stage 15, 1% v/v MSO and 1% w/v ammoniumsulfate): 40%
% Herbicidal activity ([3]; A-1 25 g ai/ha, growth stage 15, 1% v/v MSO and 1% w/v ammoniumsulfate): 83%
% Herbicidal activity ([3]; A-1 50 g ai/ha, growth stage 18, 0.5% MSO): 92%
% Herbicidal activity (EPHHL; A-1 25 g ai/ha): 97%
% Herbicidal activity (ERISS; A-1 25 g ai/ha): 13%
% Herbicidal activity (ERISS; A-1 50 g ai/ha): 18%
% Herbicidal activity (DIGIN; A-1 50 g ai/ha, 7 DAT, height 60-80 cm, field, 0.5% v/v MSO): 70%
% Herbicidal activity (DIGIN; DIGIN, growth stage 65, height 40-50 cm, A-1 solo 30 g ai/ha, 21 DAT, 1% v/v MSO): 53%
% Herbicidal activity ([4]; A-1 50 g ai/ha, 25 DAT, growth stage 14-15, field, 0.25 l/ha Dash MSO Max ®): 93%
% Herbicidal activity ([4]; SORVU* (non-PPOi herbicide tolerant), height 21-31 cm, A-1 solo 30 g ai/ha, 22 DAT, 1% v/v MSO): 96%
% Herbicidal activity (POAAN; A-1 12.5 g ai/ha, 21 DAT, growth stage 55-65, height 10-15 cm, field, 140 l/ha water, 1% MSO + 2.5% ammoniumsulfate): 33%
% Herbicidal activity (POAAN; POAAN, height 2.5-4 cm, A-1 solo 12.5 g ai/ha, 7 DAT, 1% v/v MSO): 83%
% Herbicidal activity (POAAN; POAAN, height 2.5-4 cm, A-1 solo 25 g ai/ha, 7 DAT, 1% v/v MSO): 88%
% Herbicidal activity (LOLRI; growth stage 12-22, A-1 solo 25 g ai/ha): 85%
% Herbicidal activity (AMATA; A-1 0.2 g ai/ha): 75%
% Herbicidal activity (AMATA; A-1 0.3 g ai/ha): 75%
% Herbicidal activity (ALOMY; A-1 3.12 g ai/ha): 70%
% Herbicidal activity (IPOTR; A-1 solo 30 g ai/ha): 57%
% Herbicidal activity ([5]; A-1 18 g ai/ha, 29 DAT, growth stage 15-24, height 25-45 cm, field, 100 l/ha water): 73%
% Herbicidal activity ([5]; HORVS* (non-PPOi herbicide tolerant), growth stage 15, height 31-43 cm, A-1 solo 12.5 g ai/ha, 16 DAT): 72%
% Herbicidal activity ([5]; HORVS* (non-PPOi herbicide tolerant), growth stage 15, height 31-43 cm, A-1 solo 50 g ai/ha, 16 DAT): 96%
% Herbicidal activity (STEME; A-1 12.5 g ai/ha): 83%

CC(C)N(C)S(=O)(=O)NC(=O)c1cc(-n2c(=O)cc(C(F)(F)F)n(C)c2=O)c(F)cc1Cl [B-1, saflufenacil]
% Herbicidal activity (BRADC [1]; B-1 solo 25 g ai/ha): 12%
% Herbicidal activity (BRADC [2]; B-1 3.12 g ai/ha, 7 DAT): 40%
% Herbicidal activity (BRADC [2]; B-1 3.12 g ai/ha, 21 DAT): 25%
% Herbicidal activity ([3]; B-1 25 g ai/ha, growth stage 15, 1% v/v MSO and 1% w/v ammoniumsulfate): 15%
% Herbicidal activity ([3]; B-1 25 g ai/ha, growth stage 18, 0.5% MSO): 0%
% Herbicidal activity (EPHHL; B-1 25 g ai/ha): 5%
% Herbicidal activity (ERISS; B-1 25 g ai/ha): 63%
% Herbicidal activity (DIGIN; B-1 25 g ai/ha, 7 DAT, height 60-80 cm, field, 0.5% v/v MSO): 8%
% Herbicidal activity (DIGIN; DIGIN, growth stage 65, height 40-50 cm, B-1 solo 25 g ai/ha, 21 DAT, 1% v/v MSO): 5%
% Herbicidal activity ([4]; B-1 25 g ai/ha, 25 DAT, growth stage 14-15, field, 0.25 l/ha Dash MSO Max ®): 3%
% Herbicidal activity ([4]; SORVU* (non-PPOi herbicide tolerant), height 21-31 cm, B-1 solo 25 g ai/ha, 22 DAT, 1% v/v MSO): 13%
% Herbicidal activity (POAAN; B-1 12.5 g ai/ha, 21 DAT, growth stage 55-65, height 10-15 cm, field, 140 l/ha water, 1% MSO + 2.5% ammoniumsulfate): 18%
% Herbicidal activity (POAAN; POAAN, height 2.5-4 cm, B-1 solo 25 g ai/ha, 7 DAT, 1% v/v MSO): 12%
% Herbicidal activity (LOLRI; growth stage 12-22, B-1 solo 25 g ai/ha): 20%
% Herbicidal activity (AMATA; B-1 0.2 g ai/ha): 70%
% Herbicidal activity (AMATA; B-1 0.3 g ai/ha): 85%
% Herbicidal activity (ALOMY; B-1 3.12 g ai/ha): 25%
% Herbicidal activity (IPOTR; B-1 solo 25 g ai/ha): 43%
% Herbicidal activity ([5]; B-1 18 g ai/ha, 29 DAT, growth stage 15-24, height 25-45 cm, field, 100 l/ha water): 0%
% Herbicidal activity ([5]; HORVS* (non-PPOi herbicide tolerant), growth stage 15, height 31-43 cm, B-1 solo 25 g ai/ha, 16 DAT): 3%
% Herbicidal activity (STEME; B-1 12.5 g ai/ha): 53%
